The assay has as its target T1, Mad2^∆β7/β8 (Homo sapiens, UniProt Q13257).
T1 construct: a Mad2 variant with a deleted β7/β8 hairpin (Mad2^∆β7/β8: residues 1–165); His6-DoubleStrep-TEV (N); made in house
In words: NMR titration (CSP) of Cdc20^MIM-123-152 into Mad2^∆β7/β8. The conditions noted are these: 25°C. Format: binding. On the procedure: FIGURE 3 Mad2 conversion rates with different Cdc20^MIM peptides. (a) Schematic of human Cdc20. Box1: Box1 motif; C1: C‐box motif; K1: KEN box motif; MIM: Mad2‐interacting motif, residues 123–137; WD40: WD40 domain, residues 182–480; IR: IR tail. (b) Mad2 conversion in the presence of different Cdc20^MIM peptides. Mad2 conversion was traced at 25°C and the changes in the first 30 min are shown. A black tick indicates where conversion is considered complete. NMR data for O‐Mad2^R133A with Cdc20^MIM‐111‐138 shown for comparison are from Fischer et al. ([2022]). (c) The Cdc20^MIM‐138‐152‐binding site was identified by comparing the spectra of C‐Mad2:Cdc20^MIM‐123‐137 with C‐Mad2:Cdc20^MIM‐123‐152 (boxed in b) and analyzing their CSPs (Figure S8e,f). The Cdc20^MIM‐138‐152‐binding site (blue) is mapped onto the structure of C‐Mad2:Cdc20 from the cryo‐EM structure of the APC/C:MCC complex (PDB 6TLJ) (Alfieri et al., [2016], Alfieri et al., [2020]). The O‐Mad2 structural model is superimposed onto the C‐Mad2 structure for comparison. Cdc20 residues 138–152 are in yellow and residues 126–138 are in green. The β7/β8 hairpin in O‐Mad2 (red) blocks both the binding sites for Cdc20 residues 126–138 and residues 138–152. (d) As in c except the β7/β8 hairpin in O‐Mad2 is removed to expose the Cdc20 binding sites. […] (f) Cdc20^MIM‐123‐152 was titrated into Mad2^∆β7/β8 and its binding was analyzed by NMR. […]

Residues, ends and D or L forms follow the SMILES beside them.

For orientation: Kd means a measure of binding affinity in units of concentration.

Take `CC[C@H](C)[C@H](NC(=O)[C@H](CCCCN)NC(=O)[C@H](C)NC(=O)[C@H](CCC(=O)O)NC(=O)[C@H](CCC(=O)O)NC(=O)[C@@H](NC(=O)[C@H](CC(=O)O)NC(=O)[C@@H](N)Cc1ccccc1)C(C)C)C(=O)N[C@@H](CC(C)C)C(=O)N[C@@H](CCCNC(=N)N)C(=O)N[C@@H](CC(C)C)C(=O)N[C@@H](CO)C(=O)NCC(=O)N[C@@H](CCCCN)C(=O)N1CCC[C@H]1C(=O)N[C@@H](CCC(N)=O)C(=O)N[C@@H](CC(N)=O)C(=O)N[C@@H](C)C(=O)N1CCC[C@H]1C(=O)N[C@@H](CCC(=O)O)C(=O)NCC(=O)N[C@@H](Cc1ccc(O)cc1)C(=O)N[C@@H](CCC(N)=O)C(=O)N[C@@H](CC(N)=O)C(=O)N[C@@H](CCCNC(=N)N)C(=O)N[C@@H](CC(C)C)C(=O)N[C@@H](CCCCN)C(=O)N[C@H](C(=O)N[C@@H](CC(C)C)C(=O)N[C@@H](Cc1ccc(O)cc1)C(=O)O)C(C)C` [Cdc20^MIM‐123‐152] (H-FDVEEAKILRLSGKPQNAPEGYQNRLKVLY-OH; N-terminus and C-terminus assumed): the “interaction with Mad2^∆β7/β8, in words” value (NMR CSPs on addition of peptide) is on record as “weak interaction”. Also, the dissociation constant (Kd) (NMR titration, fit of resonance with largest CSP vs ligand concentration, 20 mM HEPES pH 7.0, 100 mM NaCl, 1 mM TCEP, 5% D2O, read-out: KD (estimated)) was more than 700 µM.

The values are drawn from article PMC11947619, “Molecular mechanism of Mad2 conformational conversion promoted by the Mad2‐interaction motif of Cdc20” (Protein Science : A Publication of the Protein Society, 2025).
